Source: ChEMBL document CHEMBL1148161, “Jaspisamides A-C, new cytotoxic macrolides from the Okinawan sponge Jaspis sp” (J Nat Prod, 1993)
Values after ≈ are worked out from the molar mass of the structure shown.

Legend:
[1] = test system: L1210; assay: Cytotoxicity against mouse L1210 cells; assay type: functional, cell-based
[2] = test system: KB; assay: Cytotoxicity against human KB cells; assay type: functional, cell-based

Structure (SMILES) | IC50 [1] [ng/mL] | IC50 [2] [ng/mL]
COC(CC1OC(=O)CC(O)C/C=C/C(=O)C(C)C(OC)c2coc(n2)-c2coc(n2)-c2coc(n2)/C=C/CC(O)C1C)C(C)CCC(=O)C(C)C(C/C=C/N(C)C=O)OC (stereo unspecified) [JASPISAMIDE B] | < 1 | 6 (≈ 7.03 nM)
COC(CC1OC(=O)CC(O)C/C=C/C(=O)C(C)C(OC)c2coc(n2)-c2coc(n2)-c2coc(n2)/C=C/CCC1C)C(C)CCC(=O)C(C)C(OC)C(C)/C=C/N(C)C=O (stereo unspecified) [JASPISAMIDE C] | < 1 | 13 (≈ 15.3 nM)
COC(CC1OC(=O)CC(O)CC(O)CC(=O)C(C)C(OC)c2coc(n2)-c2coc(n2)-c2coc(n2)/C=C/CCC1C)C(C)CCC(=O)C(C)C(C/C=C/N(C)C=O)OC (stereo unspecified) [JASPISAMIDE A] | < 1 | 15 (≈ 17.5 nM)
